This is an account of results in ChEMBL document CHEMBL1201862, “PubChem BioAssay data set” (2004).

Among the test systems are HL-60; SK-MEL-28; K562; DU-145; UO-31; SW-620; CCRF-CEM; MOLT-4; SK-MEL-2; HOP-62; SR; HCC 2998; COLO 205; UACC-62; U-251; HOP-92; 786-0; M14; RXF 393; MCF7.
Assay in all cases: inhibition of tumour cell growth, NCI panel, 48 h

SMILES strings stand for the structures.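 All cell lines were grown in 96-well plates and treated with compound for 48 hours. GI50 marks 50% less growth.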 Active and inactive are the calls of the source. No stated cut-off is given here; in the data, active = GI50 up to about 1.1 µM and inactive = higher.

In the case of `OCC(O)C1OC2CC1Nc1ccccc1N2` (configuration not stated), the GI50 in the assay on HL-60, with SK-MEL-28, with K562, in the assay on DU-145, in the assay on UO-31 and with SW-620 was > 100 µM (inactive) in each case. Also, the GI50 in the assay with CCRF-CEM was 78.2 µM (inactive); in the assay on MOLT-4 it was > 100 µM (inactive); with SK-MEL-2 it was > 100 µM (inactive); in the assay on HOP-62 it was > 100 µM (inactive); in the assay with SR it was > 10 µM (inactive); in the assay on HCC 2998 it was > 100 µM (inactive). For the same molecule, the GI50 in the assay on COLO 205, with UACC-62, with U-251, in the assay with HOP-92 and in the assay with 786-0 was > 100 µM (inactive) in each case.

`COC(=O)CC1C(=O)OCc2c1cc1n(c2=O)Cc2c-1nc1ccccc1c2OC` (configuration not stated): the GI50 was 18.5 µM (inactive) in the assay with HL-60; > 100 µM (inactive) in the assay on SK-MEL-28; 84.1 µM (inactive) with K562; 16.3 µM (inactive) in the assay with UO-31; > 100 µM (inactive) in the assay on SW-620; 18 µM (inactive) with M14. The GI50 is 6 µM (inactive) in the assay with CCRF-CEM; 3.93 µM (inactive) in the assay on MOLT-4; > 100 µM (inactive) in the assay with SK-MEL-2; 11 µM (inactive) in the assay with HOP-62; 6.05 µM (inactive) with SR; 17.5 µM (inactive) in the assay with RXF 393. In addition, the GI50 with HCC 2998 is > 100 µM (inactive); in the assay with COLO 205, > 100 µM (inactive); with UACC-62, 19.7 µM (inactive); in the assay on U-251 it was 68.9 µM (inactive); in the assay on HOP-92, 20.7 µM (inactive); with 786-0 it was 37.3 µM (inactive).

For `N#CSCc1nc2ccc(Cl)cc2c(-c2ccccc2)[n+]1[O-]`, the GI50 in the assay on HL-60 is 21.5 µM (inactive); in the assay on SK-MEL-28, 14.5 µM (inactive); in the assay with K562, 25.7 µM (inactive); with UO-31, 18.7 µM (inactive); with SW-620 it was 16.6 µM (inactive); with M14, 21.9 µM (inactive). Besides, the GI50 in the assay with CCRF-CEM is 14.5 µM (inactive); in the assay with MOLT-4, 14.6 µM (inactive); in the assay with SK-MEL-2, 20.1 µM (inactive); with HOP-62, > 100 µM (inactive); in the assay on SR it was 24.9 µM (inactive); with RXF 393, 12.7 µM (inactive). Also, the GI50 was 15.6 µM (inactive) with HCC 2998; 60.1 µM (inactive) in the assay with COLO 205; 19.2 µM (inactive) with UACC-62; 29.4 µM (inactive) with U-251; 16 µM (inactive) with HOP-92; 18.2 µM (inactive) in the assay on 786-0.

On to `O=C1CC(O)C=C1Nc1ccc(Cl)cc1` (configuration not stated), for which the GI50 in the assay with HL-60 is 13.1 µM (inactive); in the assay on SK-MEL-28 it was 56.2 µM (inactive); in the assay on K562, 4.4 µM (inactive); in the assay with UO-31, 31.3 µM (inactive); in the assay with SW-620, 34.1 µM (inactive); in the assay on M14, 10.3 µM (inactive). Besides, the GI50 with CCRF-CEM is 11.4 µM (inactive); in the assay on MOLT-4, 16.4 µM (inactive); with SK-MEL-2, 29.6 µM (inactive); in the assay with HOP-62 it was 79.6 µM (inactive); with SR, 19.1 µM (inactive); in the assay with RXF 393 it was 40.5 µM (inactive). Besides, the GI50 in the assay on HCC 2998 was 12.1 µM (inactive); in the assay with COLO 205, 9.95 µM (inactive); in the assay with UACC-62 it was 0.879 µM (active); with U-251 it was 49.3 µM (inactive); in the assay on HOP-92 it was 49.1 µM (inactive); with 786-0, 58.2 µM (inactive).

`CCC(C)OC(=O)C1C2CCC(O2)C1C(=O)O` (configuration not stated): the GI50 in the assay with HL-60, in the assay on SK-MEL-28, in the assay on K562, in the assay with UO-31, in the assay with M14 and in the assay with CCRF-CEM was > 100 µM (inactive) throughout. Moreover, the GI50 with MOLT-4 was > 87.1 µM (inactive); with SK-MEL-2, > 100 µM (inactive); in the assay on HOP-62, > 100 µM (inactive); with SR it was 19.2 µM (inactive); with RXF 393 it was > 41.5 µM (inactive); in the assay with HCC 2998, > 100 µM (inactive). Besides, the GI50 was > 44.8 µM (inactive) in the assay on COLO 205; > 100 µM (inactive) in the assay with UACC-62; > 44.3 µM (inactive) with U-251; > 66.4 µM (inactive) in the assay with HOP-92; > 44.2 µM (inactive) with 786-0.

As to `O=C(CC1(O)C(=O)Nc2ccccc21)c1ccncc1` (configuration not stated), the GI50 in the assay with HL-60, in the assay on SK-MEL-28, in the assay on K562, with UO-31, in the assay on SW-620 and in the assay on M14 was > 100 µM (inactive) in each case. For the same molecule, the GI50 in the assay with CCRF-CEM, in the assay with MOLT-4, in the assay on SK-MEL-2, with SR, with RXF 393 and in the assay on HCC 2998 was > 100 µM (inactive) throughout. Moreover, the GI50 in the assay on COLO 205, with UACC-62, in the assay with U-251, with HOP-92 and with 786-0 was > 100 µM (inactive) in each case.

In the case of `CN(C(=O)C12C3C4C5C3C1(C(=O)C13C6C7C8C6C1C8C73)C5C42)C(C)(C)C` (configuration not stated), the GI50 in the assay on HL-60 is > 19.3 µM (inactive); with SK-MEL-28, > 50 µM (inactive); with K562, > 25.6 µM (inactive); with UO-31 it was > 50 µM (inactive); with SW-620, > 20.9 µM (inactive); in the assay with M14, > 50 µM (inactive). Also, the GI50 with CCRF-CEM is > 24 µM (inactive); in the assay with MOLT-4 it was 29.2 µM (inactive); with SK-MEL-2 it was > 50 µM (inactive); in the assay on HOP-62, > 50 µM (inactive); in the assay with SR, > 50 µM (inactive); with RXF 393 it was > 50 µM (inactive). The GI50 with HCC 2998 is > 50 µM (inactive); with COLO 205 it was > 29.8 µM (inactive); in the assay with UACC-62, > 50 µM (inactive); with U-251, > 50 µM (inactive); with HOP-92 it was > 50 µM (inactive); in the assay with 786-0 it was > 50 µM (inactive).

For `CCc1cccc(NC(=O)c2cc(/C=C/c3ccccc3)nc(S)n2)c1`, the GI50 with HL-60, with SK-MEL-28, in the assay with K562, with UO-31, in the assay with SW-620 and in the assay on M14 was > 100 µM (inactive) each time. For the same molecule, the GI50 in the assay on CCRF-CEM, in the assay with MOLT-4, in the assay on SK-MEL-2, in the assay on HOP-62, in the assay on SR and with RXF 393 was > 100 µM (inactive) in each case. Also, the GI50 in the assay on HCC 2998, in the assay with COLO 205, in the assay on UACC-62, with U-251, in the assay on HOP-92 and in the assay on 786-0 was > 100 µM (inactive) throughout.

Take `CCOC(=O)c1[nH]c2nc(SC)nc(NC)c2c1N`: the GI50 is > 100 µM (inactive) in the assay on SK-MEL-28; 90.2 µM (inactive) in the assay on K562; > 100 µM (inactive) in the assay with DU-145; > 100 µM (inactive) with UO-31; > 100 µM (inactive) with SW-620; 92.7 µM (inactive) in the assay with M14. Also, the GI50 was 60 µM (inactive) in the assay with CCRF-CEM; 68.2 µM (inactive) in the assay with MOLT-4; > 100 µM (inactive) in the assay with SK-MEL-2; > 100 µM (inactive) in the assay on HOP-62; > 100 µM (inactive) with RXF 393; 87.5 µM (inactive) in the assay with HCC 2998. Besides, the GI50 was > 100 µM (inactive) in the assay on COLO 205, 85.7 µM (inactive) with UACC-62, > 100 µM (inactive) in the assay on U-251 and > 100 µM (inactive) with 786-0.

With `CC1(C)C(=NNC(=O)C[N+](C)(C)C)C(C)(C)C1=NNC(=O)C[N+](C)(C)C`, the GI50 in the assay with HL-60, in the assay on SK-MEL-28, in the assay on K562, with UO-31, in the assay with M14 and in the assay with CCRF-CEM was > 100 µM (inactive) in each case. Besides, the GI50 with MOLT-4, in the assay on SK-MEL-2, with HOP-62, with SR, with RXF 393 and in the assay on HCC 2998 was > 100 µM (inactive) throughout. Besides, the GI50 in the assay on COLO 205, with UACC-62, in the assay with U-251, with HOP-92 and with 786-0 was > 100 µM (inactive) throughout.

`C/C(=N\NC(=O)c1ccncc1)c1ccccc1F`: the GI50 with HL-60, in the assay on SK-MEL-28, in the assay on K562, in the assay on UO-31, with SW-620 and in the assay on M14 was > 10 µM (inactive) in each case. Moreover, the GI50 in the assay on CCRF-CEM, in the assay with MOLT-4, with SK-MEL-2, in the assay on HOP-62, in the assay on SR and with RXF 393 was > 10 µM (inactive) in each case. Moreover, the GI50 in the assay with HCC 2998 is > 10 µM (inactive); with COLO 205, > 10 µM (inactive); in the assay with U-251, > 10 µM (inactive); in the assay with HOP-92 it was 2.37 µM (inactive); in the assay on 786-0, > 10 µM (inactive); in the assay on MCF7 it was > 10 µM (inactive).
